Experimental findings from ChEMBL document CHEMBL1201862, “PubChem BioAssay data set” (2004) are described below.

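Five concentrations, 48 hours, 96-well plates. GI50 marks 50% less growth.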 The source made the active and inactive calls. Cut-off read from the data, not from the text of the source: active = GI50 up to about 1.1 µM and inactive = higher.

Test systems include MOLT-4; NCI-H522; A549; HCT-116; UACC-62; U-251; SK-OV-3; TK-10; SF-295; BT-549; IGROV-1; PC-3; COLO 205; SF-268; SK-MEL-2; MDA-MB-231; ACHN; CCRF-CEM; SF-539; A498.
Assay in all cases: growth of human tumour cells (NCI), 48 h

Turning to `COC(=O)c1c(OC(C)=O)ccc2c1c1c(OC(C)=O)c3ccccc3c(OC(C)=O)c1n2C`, the GI50 was 15.4 µM (inactive) with MOLT-4; 12.9 µM (inactive) with NCI-H522; 29.9 µM (inactive) in the assay on A549; 19.1 µM (inactive) with HCT-116; 17.9 µM (inactive) in the assay with UACC-62; 24.8 µM (inactive) in the assay on U-251. Further, the GI50 in the assay with SK-OV-3 was 16.1 µM (inactive); in the assay on TK-10, 26.8 µM (inactive); with SF-295, 21.2 µM (inactive); in the assay on BT-549 it was 21.8 µM (inactive); in the assay with IGROV-1, 7.87 µM (inactive); in the assay with PC-3, 30.4 µM (inactive). Moreover, the GI50 in the assay with COLO 205 was 29.2 µM (inactive); in the assay with SF-268, 22.6 µM (inactive); in the assay on SK-MEL-2, 17.3 µM (inactive); with MDA-MB-231, 31.5 µM (inactive); in the assay on ACHN, 15.4 µM (inactive); in the assay with CCRF-CEM, 23.2 µM (inactive). In the assay on SF-539, the GI50 was 20.7 µM (inactive).

Regarding `CCOC(=O)CCC(NC(=O)c1ccc(Nc2nc3ccccc3nc2-c2cccs2)cc1)C(=O)OCC` (configuration not stated), the GI50 with MOLT-4 was 7.98 µM (inactive); with A549, 63.2 µM (inactive); in the assay with HCT-116, 28.4 µM (inactive); in the assay on UACC-62, 23.7 µM (inactive); in the assay on U-251, 27.4 µM (inactive); in the assay on SK-OV-3 it was 28.6 µM (inactive). For the same compound, the GI50 was 21.2 µM (inactive) in the assay with TK-10; 19.4 µM (inactive) with SF-295; 23.6 µM (inactive) with BT-549; 28 µM (inactive) with IGROV-1; 38.5 µM (inactive) with PC-3; 25.2 µM (inactive) in the assay with COLO 205. Besides, the GI50 is 27.1 µM (inactive) in the assay on SF-268; 31.2 µM (inactive) in the assay with SK-MEL-2; 21.7 µM (inactive) with A498; 27.3 µM (inactive) with MDA-MB-231; 31 µM (inactive) with ACHN; 11.4 µM (inactive) in the assay with CCRF-CEM. In the assay on SF-539, the GI50 was 32.7 µM (inactive).

Consider `CCOC(=O)c1cn(-c2ccccc2)c(=S)n2c1nc1ccccc12`, for which the GI50 with MOLT-4 is 4.65 µM (inactive); with A549, 42.9 µM (inactive); in the assay on HCT-116, 42.6 µM (inactive); in the assay with UACC-62, 53.8 µM (inactive); in the assay on U-251 it was 58.5 µM (inactive); in the assay with SK-OV-3 it was > 100 µM (inactive). The GI50 is 96.8 µM (inactive) in the assay on TK-10; 71.8 µM (inactive) in the assay on SF-295; 41.8 µM (inactive) in the assay on BT-549; 42.5 µM (inactive) in the assay on IGROV-1; 24.4 µM (inactive) in the assay with PC-3; 30.3 µM (inactive) in the assay on COLO 205. Further, the GI50 with SF-268 is 21.7 µM (inactive); with SK-MEL-2, 32.9 µM (inactive); in the assay on A498, 23.9 µM (inactive); with MDA-MB-231, > 63.7 µM (inactive); with ACHN, 56.1 µM (inactive); in the assay with CCRF-CEM, 5.53 µM (inactive). Also, the GI50 in the assay on SF-539 is 32.7 µM (inactive).

Turning to `O=C1CCCC[C@H]1C(O)CC1CC(=O)N(c2ccccc2)C(=O)C1` (some centres not stated), the GI50 in the assay on MOLT-4, with NCI-H522, with A549, in the assay with HCT-116, in the assay with UACC-62 and in the assay with U-251 was > 100 µM (inactive) in each case. Besides, the GI50 with TK-10, with SF-295, with BT-549, in the assay with IGROV-1, in the assay with PC-3 and in the assay with SF-268 was > 100 µM (inactive) each time. The GI50 in the assay on A498, in the assay on MDA-MB-231, in the assay with ACHN, in the assay with CCRF-CEM and in the assay with SF-539 was > 100 µM (inactive) throughout.

As to `O=C1C(Cl)=C(OCCCCl)C(=O)c2c(O)ccc(O)c21`, the GI50 with MOLT-4 was 0.189 µM (active); in the assay on A549, 6.4 µM (inactive); in the assay on HCT-116 it was 1.85 µM (inactive); with UACC-62 it was 1.77 µM (inactive); with U-251, 5.9 µM (inactive); in the assay with SK-OV-3 it was 21.5 µM (inactive). Besides, the GI50 in the assay on TK-10 was 3.12 µM (inactive); in the assay on SF-295 it was 6.17 µM (inactive); in the assay on BT-549, 1.92 µM (inactive); with IGROV-1, 4.18 µM (inactive); in the assay on PC-3, 3.99 µM (inactive); with COLO 205, 1.53 µM (inactive). Further, the GI50 with SF-268 was 3.08 µM (inactive); in the assay on A498, 15.2 µM (inactive); in the assay on MDA-MB-231, 2.31 µM (inactive); with ACHN, 5.07 µM (inactive); with CCRF-CEM, 0.0316 µM (active); with SF-539, 3.01 µM (inactive).

With `Cc1cnccc1/N=N/c1ccc(N(C)C)cc1`, the GI50 in the assay with MOLT-4 was 31.3 µM (inactive); with A549 it was 30.7 µM (inactive); in the assay on HCT-116, 22.9 µM (inactive); in the assay with UACC-62, 13.8 µM (inactive); in the assay with U-251, 21.3 µM (inactive); in the assay on SK-OV-3, 16.7 µM (inactive). The GI50 in the assay with TK-10 is 17.2 µM (inactive); with SF-295, 21.4 µM (inactive); in the assay on BT-549 it was 15.9 µM (inactive); in the assay with IGROV-1 it was 7.8 µM (inactive); with PC-3, 26.6 µM (inactive); in the assay with COLO 205, 11.9 µM (inactive). Besides, the GI50 in the assay with SF-268 was 16.8 µM (inactive); in the assay on A498 it was 28.3 µM (inactive); in the assay on MDA-MB-231 it was 16.3 µM (inactive); in the assay with ACHN, 20.5 µM (inactive); in the assay with CCRF-CEM, 37 µM (inactive); in the assay with SF-539, 19.6 µM (inactive).

`CC(=O)OC(/C=C/c1ccccc1)=C(OC(C)C)/C1=C(\c2ccccc2)SCCCSC1=O`: the GI50 with MOLT-4 is > 100 µM (inactive); with A549 it was > 100 µM (inactive); in the assay on HCT-116, > 100 µM (inactive); in the assay with UACC-62, 63 µM (inactive); with U-251 it was > 100 µM (inactive); with SK-OV-3 it was > 100 µM (inactive). For the same compound, the GI50 in the assay with TK-10 was > 100 µM (inactive); in the assay on SF-295, 56.8 µM (inactive); in the assay on BT-549, 44.6 µM (inactive); in the assay on PC-3 it was > 100 µM (inactive); with COLO 205, > 100 µM (inactive); in the assay with SF-268, > 100 µM (inactive). The GI50 in the assay with SK-MEL-2 was > 100 µM (inactive); in the assay on A498 it was > 100 µM (inactive); with MDA-MB-231, > 100 µM (inactive); in the assay on ACHN, > 100 µM (inactive); with CCRF-CEM, 91 µM (inactive); with SF-539, > 100 µM (inactive).

With `Cc1cccc2nc3cc(O)cc(O)c3c(O)c12`, the GI50 in the assay with MOLT-4 is > 10 µM (inactive); in the assay with NCI-H522, > 10 µM (inactive); with A549 it was > 10 µM (inactive); in the assay on HCT-116, > 10 µM (inactive); in the assay with UACC-62, 6.49 µM (inactive); in the assay on U-251, > 10 µM (inactive). Besides, the GI50 in the assay on SK-OV-3, in the assay on TK-10, with SF-295, in the assay with BT-549, with IGROV-1 and in the assay on PC-3 was > 10 µM (inactive) in each case. The GI50 in the assay on COLO 205, with SF-268, in the assay with SK-MEL-2, with MDA-MB-231, in the assay with ACHN and with CCRF-CEM was > 10 µM (inactive) throughout. Besides, the GI50 in the assay with SF-539 was > 10 µM (inactive).
